Data taken from patent publication US20060247321A1, “Abnormal Cannabidiols as agents useful in combination therapy for lowering intraocular pressure” (priority 2005, published 2006).

Key:
Type in all cases: in vivo
[1] = test system: ocular normotensive nonhuman primates (cynomolgus monkeys); test: Uveoscleral outflow of monkeys treated with abnormal cannabidiol; conditions: 0.1%
Excerpt: (§1) Consequently, the intraocular pressure lowering effects of abnormal cannabidiol is anticipated to predominantly involve reduction of aqueous humor formation in humans and nonhuman primates.

[2] = test system: ocular normotensive nonhuman primates (cynomolgus monkeys); test: Outflow facility of monkeys treated with abnormal cannabidiol; conditions: 0.1%
Excerpt: as §1

[3] = test system: Ocular normotensive Beagle dogs; test: Intraocular pressure by applanation pneumatonometry in conscious dogs; conditions: 0.1%, topical to one eye, once daily for five days, vehicle in fellow eye
Method: (§2) Intraocular pressure was measured by applanation pneumatonometry in conscious animals. The test compound was administered topically to one eye while vehicle was given to the fellow eye in a masked fashion. Ocular normotensive Beagle dogs (males, females) were dosed once daily for five days. Laser-induced unilaterally ocular hypertensive Cynomolgus monkeys (females) were dosed once daily for 4 days. Student's paired t-test was used for statistical comparisons. Differences were considered statistically significant if the P-value is less than 0.05.

[4] = test system: Laser-induced unilaterally ocular hypertensive Cynomolgus monkeys; test: Intraocular pressure by applanation pneumatonometry in conscious monkeys; conditions: 0.1%, topical to one eye, once daily for 4 days, vehicle in fellow eye
Method: as §2

[5] = topically once-daily for 5 days

Abnormal Cannabidiol
Uveosclearal Outflow, Ratio, Treated:Control ([1]; topical once-daily for 5 days vs vehicle, mean ± sem, n = 5 animals): 0.78 ± 0.05 | Uveosclearal Outflow, Treated Eye ([1]; topical once-daily for 5 days, mean ± sem, n = 5 animals): 0.58 ± 0.17 µL/min | effect on uveoscleral outflow compared to baseline and/or contralateral vehicle-treated control eyes [1, 5]: no significant effects | Outflow Facility, Ratio, Treated:Control, Treatment ([2]; topical once-daily for 5 days vs vehicle, mean ± sem, n = 6 animals): 0.93 ± 0.09 | Outflow Facility, Treated Eye, Treatment ([2]; topical once-daily for 5 days, mean ± sem, n = 6 animals): 0.57 ± 0.08 ul/min/mm Hg | effect on total outflow facility compared to baseline and/or contralateral vehicle-treated control eyes [2, 5]: no significant effects | effect on Dog Intraocular Pressure versus time [3]: lowers IOP | effect on Monkey Intraocular Pressure versus time [4]: lowers IOP
